Assays:
Type in all cases: physicochemical
[1] = Hygroscopicity: weight change on storage at 30° C., relative humidity 80%
Experimental: The hygroscopicity of the obtained crystal of 6SL sodium salt 4.6-hydrate and that of a 6SL sodium reagent (amorphous salt, manufactured by Carbosynth Limited) were compared under the following conditions.
Storage condition: 30° C., relative humidity: 80% (apparatus: THE051FA, manufactured by Advantec Toyo Kaisha Ltd.).
Measurement method: After about 100 mg of a sample was weighed with a precision balance, the sample was packed in a glass container and stored under the above-mentioned conditions. Thereafter, the sample was weighed again, and the weight change ratio was calculated.
Incidentally, the weight of the sample at each elapsed time was measured by assuming the weight of each sample at the start of the test to be 100%.

[2] = Degree of coloration (transmittance at 430 nm) when a heat load at 60° C. was applied; conditions: for degree of coloration, transmittance T % 430 nm: solution at 100 g/L in terms of anhydrate, 1 cm
Experimental: Further, with respect to the crystal of 6SL sodium salt 4.6-hydrate and known amorphous 6SL sodium salt, the degree of coloration when a heat load at 60° C. was applied was compared, and the results are shown in Table 4.
The degree of coloration is expressed by transmittance T % 430 nm 100×10^−A (A=Abs: 430 nm, 1 cm), which was obtained by dissolving each substance at 100 g/L in terms of an anhydrate and performing measurement for the solution.

[3] = pH of aqueous solution of the crystal; conditions: aqueous solution at 100 g/L in terms of crystal of 6SL sodium salt 4.6-hydrate
Experimental: As for the pH, an aqueous solution at 100 g/L in terms of crystal of 6SL sodium salt 4.6-hydrate was measured.

Row | Structure (SMILES) | weight of sample (weight at start of test = 100%) ([1]; elapsed time 0.5 hours, sodium salt) | weight of sample (weight at start of test = 100%) ([1]; elapsed time 2.5 hours, sodium salt) | weight of sample (weight at start of test = 100%) ([1]; elapsed time 8 hours, sodium salt) | weight of sample (weight at start of test = 100%) ([1]; elapsed time 20 hours, sodium salt) | degree of coloration, transmittance T % 430 nm ([2]; elapsed time 0 days, sodium salt) | degree of coloration, transmittance T % 430 nm ([2]; elapsed time 3 days, sodium salt) | degree of coloration, transmittance T % 430 nm ([2]; elapsed time 6 days, sodium salt) | pH [3] | hygroscopicity (in words) ([1]; compared with amorphous salt) | weight of sample (weight at start of test = 100%) ([1]; elapsed time 0 hours (start, assumed 100%)) | weight of sample (weight at start of test = 100%) ([1]; elapsed time 0.5 hours) | weight of sample (weight at start of test = 100%) ([1]; elapsed time 2.5 hours) | weight of sample (weight at start of test = 100%) ([1]; elapsed time 8 hours) | weight of sample (weight at start of test = 100%) ([1]; elapsed time 20 hours) | degree of coloration during storage (in words) ([2]; compared with known amorphous 6SL sodium salt) | degree of coloration, transmittance T % 430 nm ([2]; elapsed time 0 days) | degree of coloration, transmittance T % 430 nm ([2]; elapsed time 3 days) | degree of coloration, transmittance T % 430 nm ([2]; elapsed time 6 days)
1 | CC(=O)NC1C(O)CC(OCC2OC(OC3C(CO)OC(O)C(O)C3O)C(O)C(O)C2O)(C(=O)[O-])OC1C(O)C(O)CO.[Na+] (stereo not drawn) [Amorphous salt, 6SL sodium salt, reference compound] | 114.4% | 119.6% | 122.9% | 124.1% | 99.4% | 99.0% | 98.8% |  |  |  |  |  |  |  |  |  |  | 
2 | CC(=O)NC1C(O)CC(OCC2OC(OC3C(CO)OC(O)C(O)C3O)C(O)C(O)C2O)(C(=O)[O-])OC1C(O)C(O)CO.[Na+] (stereo not drawn) [Crystal of sodium salt, 6SL sodium salt 4.6-hydrate] |  |  |  |  |  |  |  | 6.23 | lower hygroscopicity than the amorphous salt | 100.0% | 98.8% | 98.6% | 98.4% | 98.7% | lower than that of known amorphous 6SL sodium salt | 99.9% | 99.8% | 99.8%

From patent US10745432B2, “Crystal of 6′-sialyllactose sodium salt, and process for producing same” (KYOWA HAKKO BIO CO., LTD., priority 2015, dated 2020)
